Reference: US9840509B2, “Heterocyclic compounds” (CADILA HEALTHCARE LIMITED, priority 2014, dated 2017)

Tests used:
[1] = molecular target: T1, recombinant purified human BTK (Homo sapiens, UniProt Q06187); assay: In vitro BTK kinase assay on ADP Glo platform; format: biochemical; conditions: 2 hr room temperature, read-out: In-vitro BTK inhibitory activity: IC50
T1 construct: purchased SignalChem, USA
Procedure, shortened: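 Recombinant human BTK (3 ng/reaction) with compound dilutions in Tris pH 7.5, MgCl2/MnCl2, BSA, DTT; started with 50 µM ATP (final) and polyGln4Tyr1 substrate, 2 h at room temperature. ADP formed detected by ADP-Glo luminescence; IC50 by nonlinear fit versus uninhibited enzyme as 100%.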

CYP 1A2 = molecular target: T2, CYP 1A2 (Homo sapiens, UniProt P05177); assay: CYP inhibition in human liver microsomes, 1A2; format: in vitro ADME; conditions: pH 7.4, @ 10 μM concn
T2 construct: from tissue; host or cells: human liver microsomes
T2 sequence (P05177 1-516): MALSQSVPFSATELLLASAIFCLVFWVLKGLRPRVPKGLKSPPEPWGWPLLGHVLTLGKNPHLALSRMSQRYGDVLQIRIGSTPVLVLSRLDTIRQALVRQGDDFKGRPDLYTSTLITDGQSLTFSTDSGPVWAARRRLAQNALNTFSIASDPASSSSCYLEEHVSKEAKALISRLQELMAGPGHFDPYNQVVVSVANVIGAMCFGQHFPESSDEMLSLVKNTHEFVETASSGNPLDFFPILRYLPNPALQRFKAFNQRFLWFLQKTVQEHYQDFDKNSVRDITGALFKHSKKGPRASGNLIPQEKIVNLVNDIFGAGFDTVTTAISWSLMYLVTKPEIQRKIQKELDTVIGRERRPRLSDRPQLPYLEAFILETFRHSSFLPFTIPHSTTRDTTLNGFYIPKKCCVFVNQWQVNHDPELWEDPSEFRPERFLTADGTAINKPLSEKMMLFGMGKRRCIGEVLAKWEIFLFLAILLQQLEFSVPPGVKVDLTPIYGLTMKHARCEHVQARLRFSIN
Procedure, shortened: (§1)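 Human liver microsomes in 100 mM phosphate pH 7.4 with CYP-specific probe substrate were incubated with test compound at […] and 10 μM, started with 1 mM NADPH at 37° C. Reactions were stopped with acetonitrile, and marker-reaction metabolites were quantified by LC-MS/MS. Final solvent was ≤0.2%.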

CYP 2C8 = molecular target: T3, CYP 2C8 (Homo sapiens, UniProt P10632); assay: CYP inhibition in human liver microsomes, 2C8; format: in vitro ADME; conditions: pH 7.4, @ 10 μM concn
T3 construct: from tissue; host or cells: human liver microsomes
T3 sequence (P10632 1-490): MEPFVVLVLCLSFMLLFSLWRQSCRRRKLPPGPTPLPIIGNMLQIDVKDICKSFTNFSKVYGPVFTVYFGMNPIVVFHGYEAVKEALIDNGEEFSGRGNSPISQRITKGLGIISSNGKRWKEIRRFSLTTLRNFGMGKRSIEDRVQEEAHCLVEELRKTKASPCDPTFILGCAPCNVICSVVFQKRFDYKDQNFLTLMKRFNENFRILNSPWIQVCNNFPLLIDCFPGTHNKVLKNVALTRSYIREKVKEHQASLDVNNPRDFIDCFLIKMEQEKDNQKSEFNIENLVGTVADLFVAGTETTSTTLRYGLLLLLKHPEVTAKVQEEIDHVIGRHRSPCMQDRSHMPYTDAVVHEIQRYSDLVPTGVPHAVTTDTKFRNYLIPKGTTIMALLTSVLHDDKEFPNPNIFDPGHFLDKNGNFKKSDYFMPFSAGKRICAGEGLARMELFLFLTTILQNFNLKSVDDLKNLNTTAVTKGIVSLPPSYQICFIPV
Procedure, shortened: as §1

CYP 2C9 = molecular target: T4, CYP 2C9 (Homo sapiens, UniProt P11712); assay: CYP inhibition in human liver microsomes, 2C9; format: in vitro ADME; conditions: pH 7.4, @ 10 μM concn
T4 construct: from tissue; host or cells: human liver microsomes
Procedure, shortened: as §1

CYP 2C19 = molecular target: T5, CYP 2C19 (Homo sapiens, UniProt P33261); assay: CYP inhibition in human liver microsomes, 2C19; format: in vitro ADME; conditions: pH 7.4, @ 10 μM concn
T5 construct: from tissue; host or cells: human liver microsomes
Procedure, shortened: as §1

CYP 2D6 = molecular target: T6, CYP 2D6 (Homo sapiens, UniProt P10635); assay: CYP inhibition in human liver microsomes, 2D6; format: in vitro ADME; conditions: pH 7.4, @ 10 μM concn
T6 construct: from tissue; host or cells: human liver microsomes
Procedure, shortened: as §1

CYP 3A4 = molecular target: T7, CYP 3A4 (Homo sapiens, UniProt P08684); assay: CYP inhibition in human liver microsomes, 3A4; format: in vitro ADME; conditions: pH 7.4, @ 10 μM concn
T7 construct: from tissue; host or cells: human liver microsomes
Procedure, shortened: as §1

T6 sequence (P10635 whole entry): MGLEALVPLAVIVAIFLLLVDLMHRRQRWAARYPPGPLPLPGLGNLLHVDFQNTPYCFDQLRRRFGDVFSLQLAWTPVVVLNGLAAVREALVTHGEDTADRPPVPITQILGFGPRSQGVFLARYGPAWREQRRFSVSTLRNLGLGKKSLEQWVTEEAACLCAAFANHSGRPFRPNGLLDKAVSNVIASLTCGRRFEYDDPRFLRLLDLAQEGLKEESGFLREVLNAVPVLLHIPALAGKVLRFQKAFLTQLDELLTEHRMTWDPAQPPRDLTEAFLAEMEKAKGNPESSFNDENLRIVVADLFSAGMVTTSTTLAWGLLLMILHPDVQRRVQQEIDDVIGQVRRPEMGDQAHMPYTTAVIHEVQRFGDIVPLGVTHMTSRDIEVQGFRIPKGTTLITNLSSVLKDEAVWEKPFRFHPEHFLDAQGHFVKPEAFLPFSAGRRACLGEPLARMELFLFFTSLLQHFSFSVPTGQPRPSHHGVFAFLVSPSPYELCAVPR
T7 sequence (P08684 whole entry): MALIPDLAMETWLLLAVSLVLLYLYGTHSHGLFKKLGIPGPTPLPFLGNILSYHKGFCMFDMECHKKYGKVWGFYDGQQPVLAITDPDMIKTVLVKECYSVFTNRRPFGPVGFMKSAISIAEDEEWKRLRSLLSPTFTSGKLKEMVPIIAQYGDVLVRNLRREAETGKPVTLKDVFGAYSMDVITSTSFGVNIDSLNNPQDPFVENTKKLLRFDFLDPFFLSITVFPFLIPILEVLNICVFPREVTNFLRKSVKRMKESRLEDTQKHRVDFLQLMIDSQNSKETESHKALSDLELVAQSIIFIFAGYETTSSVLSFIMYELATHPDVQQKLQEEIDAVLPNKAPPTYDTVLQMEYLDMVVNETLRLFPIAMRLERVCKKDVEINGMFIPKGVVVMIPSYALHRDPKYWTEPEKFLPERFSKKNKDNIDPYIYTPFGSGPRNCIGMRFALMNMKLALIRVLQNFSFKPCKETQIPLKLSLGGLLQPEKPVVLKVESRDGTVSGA
T5 sequence (P33261 whole entry): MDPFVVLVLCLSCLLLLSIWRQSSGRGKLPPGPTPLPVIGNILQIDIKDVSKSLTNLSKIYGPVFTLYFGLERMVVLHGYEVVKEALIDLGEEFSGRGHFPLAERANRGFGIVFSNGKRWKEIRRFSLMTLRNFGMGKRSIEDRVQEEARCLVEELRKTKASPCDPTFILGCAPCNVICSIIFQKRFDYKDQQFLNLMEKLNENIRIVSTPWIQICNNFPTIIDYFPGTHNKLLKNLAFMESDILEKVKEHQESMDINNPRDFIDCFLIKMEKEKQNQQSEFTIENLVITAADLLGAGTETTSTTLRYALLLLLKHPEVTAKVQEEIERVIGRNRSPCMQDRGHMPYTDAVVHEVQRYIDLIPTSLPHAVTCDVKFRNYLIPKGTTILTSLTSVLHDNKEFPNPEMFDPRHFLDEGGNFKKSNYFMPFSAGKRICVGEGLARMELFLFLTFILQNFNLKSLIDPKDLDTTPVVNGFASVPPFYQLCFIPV
T4 sequence (P11712 whole entry): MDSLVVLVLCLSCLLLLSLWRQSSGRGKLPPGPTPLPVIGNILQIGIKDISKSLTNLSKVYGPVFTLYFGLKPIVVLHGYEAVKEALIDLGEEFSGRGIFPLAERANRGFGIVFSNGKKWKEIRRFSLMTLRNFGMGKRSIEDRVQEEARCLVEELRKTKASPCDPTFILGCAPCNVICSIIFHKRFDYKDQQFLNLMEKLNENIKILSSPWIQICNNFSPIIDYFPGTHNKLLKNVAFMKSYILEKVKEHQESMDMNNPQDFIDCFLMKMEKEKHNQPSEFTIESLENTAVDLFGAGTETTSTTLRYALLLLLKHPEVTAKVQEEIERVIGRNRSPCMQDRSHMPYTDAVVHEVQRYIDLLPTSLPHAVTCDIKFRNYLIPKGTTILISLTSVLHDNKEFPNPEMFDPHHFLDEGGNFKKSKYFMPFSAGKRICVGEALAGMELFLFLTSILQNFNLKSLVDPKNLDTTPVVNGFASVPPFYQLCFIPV
T1 sequence (Q06187 whole entry): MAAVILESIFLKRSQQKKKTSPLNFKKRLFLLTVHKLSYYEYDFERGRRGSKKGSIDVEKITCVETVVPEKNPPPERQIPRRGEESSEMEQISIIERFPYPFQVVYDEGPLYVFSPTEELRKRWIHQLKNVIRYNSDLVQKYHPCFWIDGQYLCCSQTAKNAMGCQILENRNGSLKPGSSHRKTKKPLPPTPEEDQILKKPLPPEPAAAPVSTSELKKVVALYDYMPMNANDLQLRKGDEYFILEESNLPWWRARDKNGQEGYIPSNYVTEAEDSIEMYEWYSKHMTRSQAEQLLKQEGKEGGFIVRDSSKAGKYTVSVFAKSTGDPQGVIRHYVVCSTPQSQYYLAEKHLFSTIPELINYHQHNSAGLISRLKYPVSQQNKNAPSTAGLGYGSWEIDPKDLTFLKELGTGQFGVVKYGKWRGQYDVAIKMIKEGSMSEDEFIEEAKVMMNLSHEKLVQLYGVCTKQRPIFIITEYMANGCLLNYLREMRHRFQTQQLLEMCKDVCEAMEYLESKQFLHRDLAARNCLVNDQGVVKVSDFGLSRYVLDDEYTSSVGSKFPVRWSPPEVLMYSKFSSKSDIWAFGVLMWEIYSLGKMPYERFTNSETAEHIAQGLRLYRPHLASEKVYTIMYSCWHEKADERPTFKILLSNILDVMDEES

Work on C=CC(=O)N1CC2CC(n3nc(-c4ccc(NC(=O)c5cnccn5)cc4)c4c(N)ncnc43)CC2C1 (stereo not shown) [Compound 35, N-(4-(1-(2-acryloyloctahydrocyclopenta[c]pyrrol-5-yl)-4-amino-1H-pyrazolo[3,4-d]pyrimidin-3-yl)phenyl)pyrazine-2-carb oxamide] yielded an IC50 [1] of 1.2 nM, an inhibition at 10 μM (CYP 1A2) of under 50% and an inhibition at 10 μM (CYP 2C8) of under 50%. It also gave an inhibition at 10 μM (CYP 2C9) of under 50%, an inhibition at 10 μM (CYP 2C19) of under 50% and an inhibition at 10 μM (CYP 2D6) of under 50%. For the same molecule, the inhibition at 10 μM (CYP 3A4) was under 50%.
With C=CC(=O)N1CC2CC(n3nc(-c4ccc5c(c4)OC(F)(F)O5)c4c(N)ncnc43)CC2C1 (stereo not shown) [Compound 36, 1-(5-(4-amino-3-(2,2-difluorobenzo[d] [1,3]dioxol-5-yl)-1H-pyrazolo [3,4-d]pyrimidin-1-yl)hexahydrocyclopenta[c]pyrrol-2(1H)-yl)prop-2-en-1-one] the IC50 [1] was 1.1 nM, the inhibition at 10 μM (CYP 1A2) was under 50% and the inhibition at 10 μM (CYP 2C8) was under 50%. For the same molecule, the inhibition at 10 μM (CYP 2C9) was under 50%, the inhibition at 10 μM (CYP 2C19) was under 50% and the inhibition at 10 μM (CYP 2D6) was under 50%. For the same molecule, the inhibition at 10 μM (CYP 3A4) was under 50%.
In the case of C=CC(=O)N1CC2CC(n3nc(-c4ccc(C(=O)Nc5cnccn5)cc4)c4c(N)ncnc43)CC2C1 (stereo not shown) [Compound 37, 4-(1-(2-acryloyloctahydrocyclopenta[c]pyrrol-5-yl)-4-amino-1H-pyrazolo[3,4-d]pyrimidin-3-yl)-N-(pyrazin-2-yl)benzamide], the IC50 [1] is reported as 1 nM, the inhibition at 10 μM (CYP 1A2) is reported as under 50% and the inhibition at 10 μM (CYP 2C8) is reported as under 50%. The inhibition at 10 μM (CYP 2C9) was under 50%, the inhibition at 10 μM (CYP 2C19) was under 50% and the inhibition at 10 μM (CYP 2D6) was under 50%. For the same molecule, the inhibition at 10 μM (CYP 3A4) was under 50%.
C=CC(=O)N1CC2CC(n3nc(-c4ccc(NC(=O)c5ccccc5)cc4)c4c(N)ncnc43)CC2C1 (stereo not shown) [Compound 38, N-(4-(1-(2-acryloyloctahydrocyclopenta[c]pyrrol-5-yl)-4-amino-1H-pyrazolo[3,4-d]pyrimidin-3-yl)phenyl)benzamide] gave an IC50 [1] of 17 nM, an inhibition at 10 μM (CYP 1A2) of under 50% and an inhibition at 10 μM (CYP 2C8) of under 50%. The inhibition at 10 μM (CYP 2C9) was under 50%, the inhibition at 10 μM (CYP 2C19) was under 50% and the inhibition at 10 μM (CYP 2D6) was over 50%. It also gave an inhibition at 10 μM (CYP 3A4) of under 50%.
With C=CC(=O)N1CC2CC(n3nc(-c4ccc(-c5nnc(-c6ccccn6)s5)cc4)c4c(N)ncnc43)CC2C1 (stereo not shown) [Compound 39, 1-(5-(4-amino-3-(4-(5-(pyridin-2-yl)-1,3,4-thiadiazol-2-yl)phenyl)-1H-pyrazolo [3,4-d]pyrimidin-1-yl)hexahydrocyclopenta[c]pyrrol-2(1H)-yl)prop-2-en-1-one] the IC50 [1] was 1.4 nM, the inhibition at 10 μM (CYP 1A2) was under 50% and the inhibition at 10 μM (CYP 2C8) was under 50%. It also gave an inhibition at 10 μM (CYP 2C9) of under 50%, an inhibition at 10 μM (CYP 2C19) of under 50% and an inhibition at 10 μM (CYP 2D6) of under 50%. For the same molecule, the inhibition at 10 μM (CYP 3A4) was under 50%.
C=CC(=O)N1CC2CC(n3nc(-c4ccc(C(=O)Nc5cc(C(F)(F)F)ccn5)cc4)c4c(N)ncnc43)CC2C1 (stereo not shown) [Compound 40, 4-(1-(2-acryloyloctahydrocyclopenta[c]pyrrol-5-yl)-4-amino-1H-pyrazolo[3,4-d]pyrimidin-3-yl)-N-(4-(trifluoromethyl)pyridin-2-yl)benzamide] gave an IC50 [1] of 6 nM, an inhibition at 10 μM (CYP 1A2) of over 50% and an inhibition at 10 μM (CYP 2C8) of under 50%. The inhibition at 10 μM (CYP 2C9) was over 50%, the inhibition at 10 μM (CYP 2C19) was under 50% and the inhibition at 10 μM (CYP 2D6) was under 50%. For the same molecule, the inhibition at 10 μM (CYP 3A4) was under 50%.
For C=CC(=O)N1CC2CC(n3nc(-c4ccc(/C(=N/c5cc(C)ccn5)OC)cc4)c4c(N)ncnc43)CC2C1 (stereo not shown) [Compound 41, (Z)-methyl 4-(1-(2-acryloyloctahydrocyclopenta[c]pyrrol-5-yl)-4-amino-1H-pyrazolo[3,4-d]pyrimidin-3-yl)-N-(4-methylpyridin-2-yl)benzimidate], the IC50 [1] was 3.5 nM, the inhibition at 10 μM (CYP 1A2) was under 50% and the inhibition at 10 μM (CYP 2C8) was under 50%. The inhibition at 10 μM (CYP 2C9) was under 50%, the inhibition at 10 μM (CYP 2C19) was under 50% and the inhibition at 10 μM (CYP 2D6) was under 50%. For the same molecule, the inhibition at 10 μM (CYP 3A4) was over 50%.
With C=CC(=O)N1CC2CC(n3nc(-c4ccc(Oc5ccccn5)cc4)c4c(N)ncnc43)CC2C1 (stereo not shown) [Compound 43, 1-(5-(4-amino-3-(4-(pyridin-2-yloxy)phenyl)-1H-pyrazolo[3,4-d]pyrimidin-1-yl)hexahydrocyclopenta[c]pyrrol-2(1H)-yl)prop-2-en-1-one] the IC50 [1] was 2 nM, the inhibition at 10 μM (CYP 1A2) was under 50% and the inhibition at 10 μM (CYP 2C8) was under 50%. The inhibition at 10 μM (CYP 2C9) was under 50%, the inhibition at 10 μM (CYP 2C19) was under 50% and the inhibition at 10 μM (CYP 2D6) was under 50%. The inhibition at 10 μM (CYP 3A4) was under 50%.
CN(C)C/C=C/C(=O)N1CC2CC(n3nc(-c4ccc(C(=O)Nc5ccccn5)cc4)c4c(N)ncnc43)CC2C1 (stereo not shown) [Compound 44, (E)-4-(4-amino-1-(2-(4-(dimethylamino)but-2-enoyl)octahydrocyclopenta [c]pyrrol-5-yl)-1H-pyrazolo[3,4-d]pyrimidin-3-yl)-N-(pyridin-2-yl) benzamide] gave an IC50 [1] of 1.4 nM, an inhibition at 10 μM (CYP 1A2) of under 50% and an inhibition at 10 μM (CYP 2C8) of under 50%. It also gave an inhibition at 10 μM (CYP 2C9) of under 50%, an inhibition at 10 μM (CYP 2C19) of under 50% and an inhibition at 10 μM (CYP 2D6) of under 50%. For the same molecule, the inhibition at 10 μM (CYP 3A4) was under 50%.
Cc1ccnc(NC(=O)c2ccc(-c3nn(C4CC5CN(C(=O)/C=C/CN(C)C)CC5C4)c4ncnc(N)c34)cc2)c1 (stereo not shown) [Compound 45, (E)-4-(4-amino-1-(2-(4-(dimethylamino)but-2-enoyl)octahydrocyclopenta[c]pyrrol-5-yl)-1H-pyrazolo[3,4-d]pyrimidin-3-yl)-N-(4-methylpyridin-2-yl) benzamide] gave an IC50 [1] of 10 nM, an inhibition at 10 μM (CYP 1A2) of over 50% and an inhibition at 10 μM (CYP 2C8) of under 50%. For the same molecule, the inhibition at 10 μM (CYP 2C9) was under 50%, the inhibition at 10 μM (CYP 2C19) was under 50% and the inhibition at 10 μM (CYP 2D6) was under 50%. For the same molecule, the inhibition at 10 μM (CYP 3A4) was under 50%.
For CN(C)C/C=C/C(=O)N1CC2CC(n3nc(-c4ccc(Oc5ccccn5)cc4)c4c(N)ncnc43)CC2C1 (stereo not shown) [Compound 47, (E)-1-(5-(4-amino-3-(4-(pyridin-2-yloxy)phenyl)-1H-pyrazolo[3,4-d]pyrimidin-1-yl)hexahydrocyclopenta[c]pyrrol-2(1H)-yl)-4-(dimethylamino)but-2-en-1-one], the IC50 [1] was 3 nM, the inhibition at 10 μM (CYP 1A2) was under 50% and the inhibition at 10 μM (CYP 2C8) was under 50%. It also gave an inhibition at 10 μM (CYP 2C9) of under 50%, an inhibition at 10 μM (CYP 2C19) of under 50% and an inhibition at 10 μM (CYP 2D6) of under 50%. It also gave an inhibition at 10 μM (CYP 3A4) of under 50%.
With CN(C)C/C=C/C(=O)N1CC2CC(n3nc(-c4ccc(C(=O)Nc5cnccn5)cc4)c4c(N)ncnc43)CC2C1 (stereo not shown) [Compound 49, (E)-4-(4-amino-1-(2-(4-(dimethylamino)but-2-enoyl)octahydrocyclopenta [c]pyrrol-5-yl)-1H-pyrazolo[3,4-d]pyrimidin-3-yl)-N-(pyrazin-2-yl)benzamide] the IC50 [1] was 2.5 nM, the inhibition at 10 μM (CYP 1A2) was under 50% and the inhibition at 10 μM (CYP 2C8) was under 50%. For the same molecule, the inhibition at 10 μM (CYP 2C9) was under 50%, the inhibition at 10 μM (CYP 2C19) was under 50% and the inhibition at 10 μM (CYP 2D6) was under 50%. For the same molecule, the inhibition at 10 μM (CYP 3A4) was under 50%.
CO/C(=N\c1cc(C)ccn1)c1ccc(-c2nn(C3CC4CN(C(=O)/C=C/CN(C)C)CC4C3)c3ncnc(N)c23)cc1 (stereo not shown) [Compound 50, (Z)-methyl 4-(4-amino-1-(2-((E)-4-(dimethylamino)but-2-enoyl)octahydrocyclopenta[c]pyrrol-5-yl)-1H-pyrazolo[3,4-d]pyrimidin-3-yl)-N-(4-methylpyridin-2-yl) benzimidate] gave an IC50 [1] of 19 nM, an inhibition at 10 μM (CYP 1A2) of under 50% and an inhibition at 10 μM (CYP 2C8) of under 50%. It also gave an inhibition at 10 μM (CYP 2C9) of under 50%, an inhibition at 10 μM (CYP 2C19) of under 50% and an inhibition at 10 μM (CYP 2D6) of over 50%. For the same molecule, the inhibition at 10 μM (CYP 3A4) was over 50%.
